# Assays:
# ADAR1 = target: T1, ADAR1 (Homo sapiens, UniProt P55265); assay: ADAR1 Inhibition Assay (IFN fold-induction, Quanti-Luc luminescence, p110 KO A549 dual cells); type: cell-based; details: IFN fold-induction vs DMSO, 24 and 48 h
# T1 construct: endogenous in cells; host or cells: p110 KO A549 dual cells
# T1 sequence (P55265 1-1226): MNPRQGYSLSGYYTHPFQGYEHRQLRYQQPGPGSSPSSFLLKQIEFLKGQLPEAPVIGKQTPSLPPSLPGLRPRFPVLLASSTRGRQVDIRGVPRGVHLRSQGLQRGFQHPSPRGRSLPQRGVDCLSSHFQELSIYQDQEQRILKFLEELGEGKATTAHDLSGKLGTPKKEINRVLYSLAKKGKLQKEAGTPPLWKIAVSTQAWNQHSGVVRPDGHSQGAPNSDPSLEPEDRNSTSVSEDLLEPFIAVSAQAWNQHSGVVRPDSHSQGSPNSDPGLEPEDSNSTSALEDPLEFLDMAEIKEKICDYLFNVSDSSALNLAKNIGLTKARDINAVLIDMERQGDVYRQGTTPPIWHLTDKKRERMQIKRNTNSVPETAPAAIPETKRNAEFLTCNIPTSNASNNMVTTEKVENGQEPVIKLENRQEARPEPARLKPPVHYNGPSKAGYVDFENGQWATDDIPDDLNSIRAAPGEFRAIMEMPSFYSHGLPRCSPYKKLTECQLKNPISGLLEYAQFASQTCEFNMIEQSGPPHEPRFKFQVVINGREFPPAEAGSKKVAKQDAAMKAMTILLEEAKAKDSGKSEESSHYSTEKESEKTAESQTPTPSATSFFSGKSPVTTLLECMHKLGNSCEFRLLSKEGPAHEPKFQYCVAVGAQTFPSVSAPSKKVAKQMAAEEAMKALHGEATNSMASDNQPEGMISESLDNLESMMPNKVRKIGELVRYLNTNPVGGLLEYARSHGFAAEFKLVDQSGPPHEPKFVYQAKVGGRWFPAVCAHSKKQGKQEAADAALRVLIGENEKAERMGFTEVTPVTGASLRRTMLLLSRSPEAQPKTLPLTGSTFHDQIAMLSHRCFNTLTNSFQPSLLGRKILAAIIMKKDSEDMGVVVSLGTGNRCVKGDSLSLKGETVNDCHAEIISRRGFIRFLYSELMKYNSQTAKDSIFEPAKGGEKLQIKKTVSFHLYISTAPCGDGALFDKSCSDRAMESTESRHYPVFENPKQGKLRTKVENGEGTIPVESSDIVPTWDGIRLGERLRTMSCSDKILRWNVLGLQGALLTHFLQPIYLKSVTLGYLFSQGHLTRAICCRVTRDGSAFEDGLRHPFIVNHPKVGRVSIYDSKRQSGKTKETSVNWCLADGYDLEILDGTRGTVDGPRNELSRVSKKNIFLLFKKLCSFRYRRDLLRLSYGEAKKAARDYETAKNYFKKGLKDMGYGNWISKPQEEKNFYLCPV
# Method in brief: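 EC50 derived from IFN fold-induction, calculated as sample RLU over average DMSO RLU. Luminescence measured by Quanti-Luc on samples taken after 24 and 48 h of compound exposure (1% DMSO final, 37 °C, 5% CO2). Cells were p110 KO A549 dual, seeded at 20,000 per well in supplemented DMEM.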
# Zα domain of ADAR1 p150 = target: T2, Zα domain of ADAR1 p150 (Homo sapiens, UniProt P55265); assay: SPR binding assay; details: 6× his tag Zα domain immobilized on CM5 chip, analyte 0-25 μM
# T2 construct: 10 μg/ml of Zα domain of ADAR1 was immobilized on CM5 chip using anti-HIS antibody; made in house
# T2 sequence (P55265 133-199 limits assumed): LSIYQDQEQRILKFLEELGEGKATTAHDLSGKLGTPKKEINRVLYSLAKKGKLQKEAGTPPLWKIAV
# Method in brief: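 His-tagged Zα domain of human ADAR1 p150, bacterially expressed and Ni-NTA purified, was captured at 10 μg/ml on a CM5 chip via anti-His antibody. Analytes ran at 0–25 μM in PBSP + 5% DMSO, 30 μL/min, with 60 s contact and 320 s dissociation. Kd came from curve fitting.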
# A549 p110 KO cells = assay: IFN-β induction in A549 p110 KO cells; type: cell-based, human
# WT A549 cells = assay: IFN-β induction in WT A549 cells; type: cell-based, human; details: compared to A549 p110 KO cells, FIG. 1B
# A549 (p110 KO) = assay: Interferon-stimulated gene expression in A549 (p110 KO); type: cell-based, human; details: FIG. 2, FIGS. 3A-3D
# HCT 116 = assay: Interferon-stimulated gene expression in HCT 116; type: cell-based, human; details: FIG. 4, FIGS. 5A-5D
# B16F10 = assay: MDA5, IFN-β, CXCL10 levels in murine cancer cell line B16F10; type: cell-based; details: FIG. 6, FIGS. 7A-7B
# B16F10 melanoma = assay: B16F10 mouse melanoma model, anti-tumor efficacy; type: in vivo
# From the text: (§1) Study: A B16F10 mouse melanoma model was used to evaluate the anti-tumor efficacy of Compound 1, alone or in combination with anti-PD-1 therapy.
# B16F10 tumors = assay: Tumor MDA5, IFN-β and CXCL10 levels in mice with B16F10 tumors; type: in vivo, mouse
# From the text: as §1
EC50 (ADAR1) [µM],Kd (Zα domain of ADAR1 p150) [µM],Structure (SMILES),other results
> 100,≤ 1,CCOC(=O)c1cc(-c2ccccc2)sc1NC(=O)Cn1cc(C(=O)Nc2cccc(P(=O)(O)O)c2)nn1 [Compound 420],
> 100,≤ 1,CCOC(=O)c1cc(-c2ccccc2)sc1NC(=O)COC(=O)c1ccc(P(=O)(O)O)cc1 [Compound 424],
> 100,≤ 1,CCOC(=O)c1cc(-c2ccccc2)sc1NC(=O)[C@H]1CCN(C(=O)c2cccc(S(N)(=O)=O)c2)C1 [Compound 426],
> 100,≤ 1,CCOC(=O)c1cc(-c2ccccc2)sc1NC(=O)Cn1cc(-c2cccc(S(N)(=O)=O)c2)nn1 [Compound 427],
> 100,≤ 1,CCOC(=O)c1cc(-c2ccccc2)sc1NC(=O)[C@H]1CCN(C(=O)c2cccc(S(=O)(=O)NC(C)=O)c2)C1 [Compound 428],

# Second part, the compound before the results:
Structure (SMILES),EC50 (ADAR1) [µM],Kd (Zα domain of ADAR1 p150) [µM],other results
"CCOC(=O)c1cc(-c2ccccc2)sc1NC(=O)COC(=O)c1cccc(S(N)(=O)=O)c1 [Compound 1, Ethyl 5-phenyl-2-(2-((3-sulfamoylbenzoyl)oxy)acetamido)thiophene-3-carboxylate]",≤ 25,≤ 1,"IFN-β induction (via ADAR1 inhibition) (A549 p110 KO cells; FIG. 1A): dose-dependent IFN-β induction; IFN-β induction compared to STING agonists cGAMP, ADU-S100, MSA-002 (A549 p110 KO cells; FIG. 1C): superior IFN-β induction; IFN-β induction (WT A549 cells): Lower IFN-β induction; expression of several interferon-stimulated genes (ISGs) (A549 (p110 KO)): dose-dependent expression; expression of several interferon-stimulated genes (ISGs) (HCT 116): dose-dependent expression; upregulation of MDA5, IFN-β, and CXCL10 (B16F10): dose-dependent upregulation; tumor growth inhibition (TGI) (B16F10 melanoma; B16F10 mouse melanoma model, FIG. 8): 45%; tumor weight reduction (B16F10 melanoma; compared to vehicle control, Compound 1 100 μg, FIG. 9): about 60%; tumor MDA5 mRNA levels (B16F10 tumors; B16F10 melanoma model, FIG. 10): significant increase; induction of IFN-β and CXCL10 (B16F10 tumors; B16F10 tumors in mice, FIG. 11A, 11B): increased induction"
CCOC(=O)c1cc(-c2ccccc2)sc1NC(=O)[C@H]1CCCN1C(=O)c1cccc(P(=O)(O)O)c1 [Compound 414],> 100,≤ 1,
CCOC(=O)c1cc(-c2ccccc2)sc1NC(=O)[C@@H]1CCN(C(=O)c2cccc(P(=O)(OCC)OCC)c2)C1 [Compound 415],> 100,≤ 1,
CCOC(=O)c1cc(-c2ccccc2)sc1NC(=O)CNC(=O)c1cccc(S(N)(=O)=O)c1 [Compound 416],> 100,≤ 1,
CCOC(=O)c1nc(-c2ccccc2)oc1NC(=O)COC(=O)c1cccc(P(=O)(O)O)c1 [Compound 418],> 100,> 10,
CCOC(=O)c1cc(-c2ccccc2)sc1NC(=O)COC(=O)c1ccc(P(=O)(OCC)OCC)cc1 [Compound 421],> 100,≤ 1,

# Reference: patent publication US20260200890A1, “ADAR1 INHIBITORS AND METHODS OF USING THE SAME” (AVAMMUNE THERAPEUTICS INC., priority 2022, published 2026)
